Data set [1] addresses E3 ubiquitin-protein ligase Mdm2 (Homo sapiens, UniProt Q00987). Description: Binding affinity to HDM2 (unknown origin).
Data set [2] is described as follows: Lipophilicity, logD of the compound at pH 7 by RP-HPLC analysis. The class given is physicochemical. The following applies: buffer.
Data set [3] is described as follows: Unbound clearance in dog. The following applies: in vivo. Format: ADME, Canis lupus familiaris.
Data set [4] is described as follows: Mean residence time in dog. Format: ADME, Canis lupus familiaris. The conditions noted are these: in vivo.
The nature of data set [5]: Bioavailability in dog. The conditions noted are these: in vivo. The class given is ADME, organism-based, Canis lupus familiaris.
Data set [6] is described as follows: Unbound clearance in rat. Format: ADME. The conditions noted are these: in vivo.
The nature of data set [7]: Mean residence time in rat. Format: ADME. The conditions noted are these: in vivo.
Data set [8] is described as follows: Bioavailability in rat. The following applies: in vivo. Format: ADME, organism-based.
Another data set relates to HCT-116. Description: cells. The following applies: Homo sapiens, HCT-116, 72 h.
Data set [9] concerns the target T1, Tumour suppressor p53/oncoprotein Mdm2 (Homo sapiens, UniProt Q00987). Description: Inhibition of HDM2/p53 interaction in human HCT-116 cells expressing p53RE/Bla incubated for 16 hrs by beta-lactamase reporter gene assay. Format: cell-based. A general note: In a reporter assay the amount or activity of a reporter protein is the signal.
The nature of data set [10]: Selectivity index, ratio of IC50 for inhibition of HDM2/p53 interaction in human HCT-116 cells expressing p53/Bla to IC50 for inhibition of N-terminal thioredoxin-His6 tagged HDM2 (17 to 125 residues)/p53 protein-protein interaction (unknown origin). Format: cell-based.
Data set [11] is described as follows: Clearance in rat plasma. The class given is ADME, cell-free.
Data set [12] can be described thus: Oral bioavailability in rat. The class given is ADME, organism-based. The following applies: in vivo.
In data set [13] the target is T1, Tumour suppressor p53/oncoprotein Mdm2. Description: Inhibition of N-terminal thioredoxin-His6 tagged HDM2 (17 to 125 residues)/p53 protein-protein interaction (unknown origin) incubated for 2 hrs by TR-FRET assay.
Data set [14] is described as follows: Intrinsic clearance in rat hepatocytes. Format: ADME, cell-based, Hepatocyte. The conditions noted are these: read-out: CLH.
Data set [15] in a line: Intrinsic clearance in dog hepatocytes. The class given is ADME, cell-based, Canis lupus familiaris, Hepatocyte. The conditions noted are these: read-out: CLH.
The nature of data set [16]: Intrinsic Clearance in rhesus monkey hepatocytes. Format: ADME, cell-based, Macaca mulatta, Hepatocyte. The following applies: read-out: CLH.
The nature of data set [17]: Plasma protein binding in rat. Format: ADME, cell-free. The following applies: read-out: PPB (converted).
The nature of data set [18]: Plasma protein binding in dog. Format: ADME, cell-free, Canis lupus familiaris. The conditions noted are these: read-out: PPB (converted).
Data set [19] is described as follows: Plasma protein binding in rhesus monkey. The class given is ADME, cell-free, Macaca mulatta. The conditions noted are these: read-out: PPB (converted).
Data set [20] in a line: Clearance in rat plasma at 1 mg/kg, po or 0.5 mg/kg, iv. The class given is ADME, organism-based.
Data set [21] is described as follows: Clearance in dog plasma at 0.5 mg/kg, po or 0.25 mg/kg, iv. Format: ADME, organism-based, Canis lupus familiaris.
The nature of data set [22]: Clearance in rhesus monkey plasma at 0.5 mg/kg, iv. The class given is ADME, organism-based, Macaca mulatta.
A short description of data set [23]: Volume of distribution in rat at 1 mg/kg, po or 0.5 mg/kg, iv. The class given is ADME, organism-based. The conditions noted are these: in vivo.
Data set [24] is described as follows: Volume of distribution in dog at 0.5 mg/kg, po or 0.25 mg/kg, iv. Format: ADME, organism-based, Canis lupus familiaris. The conditions noted are these: in vivo.
A short description of data set [25]: Volume of distribution in rhesus monkey at 0.5 mg/kg, iv. Format: ADME, organism-based, Macaca mulatta. The following applies: in vivo.
Data set [26] can be described thus: Terminal half life in rat at 1 mg/kg, po or 0.5 mg/kg, iv. Format: ADME, organism-based. The following applies: in vivo, read-out: beta t1/2 (converted).
Data set [27] is described as follows: Terminal half life in dog at 0.5 mg/kg, po or 0.25 mg/kg, iv. Format: ADME, organism-based, Canis lupus familiaris. The following applies: in vivo, read-out: beta t1/2 (converted).
The nature of data set [28]: Terminal half life in rhesus monkey at 0.5 mg/kg, iv. The class given is ADME, organism-based, Macaca mulatta. The conditions noted are these: in vivo, read-out: beta t1/2 (converted).
Data set [29] is described as follows: Bioavailability in rat at 1 mg/kg, po or 0.5 mg/kg, iv. The class given is ADME, organism-based. The conditions noted are these: in vivo.
Data set [30] can be described thus: Bioavailability in dog at 0.5 mg/kg, po or 0.25 mg/kg, iv. Format: ADME, organism-based, Canis lupus familiaris. The conditions noted are these: in vivo.
Data set [31] in a line: Intrinsic clearance in human hepatocytes. The class given is ADME, cell-based, Hepatocyte. The following applies: read-out: CLH.
Data set [32] can be described thus: Plasma protein binding in human. The following applies: read-out: PPB (converted). The class given is ADME, cell-free.
Data set [33] addresses T2, Cytochrome P450 3A4 (Homo sapiens, UniProt P08684). Description: Inhibition of CYP3A4 (unknown origin). The class given is ADME.
The target of another data set is Cytochrome P450 2C9 (Homo sapiens, UniProt P11712). Description: Inhibition of CYP2C9 (unknown origin). The class given is ADME.
The target of another data set is Cytochrome P450 2D6 (Homo sapiens, UniProt P10635). Description: Inhibition of CYP2D6 (unknown origin). The class given is ADME.
A further data set has as its target T3, Cytochrome P450 2C8 (Homo sapiens, UniProt P10632).
T3 sequence (P10632 whole entry): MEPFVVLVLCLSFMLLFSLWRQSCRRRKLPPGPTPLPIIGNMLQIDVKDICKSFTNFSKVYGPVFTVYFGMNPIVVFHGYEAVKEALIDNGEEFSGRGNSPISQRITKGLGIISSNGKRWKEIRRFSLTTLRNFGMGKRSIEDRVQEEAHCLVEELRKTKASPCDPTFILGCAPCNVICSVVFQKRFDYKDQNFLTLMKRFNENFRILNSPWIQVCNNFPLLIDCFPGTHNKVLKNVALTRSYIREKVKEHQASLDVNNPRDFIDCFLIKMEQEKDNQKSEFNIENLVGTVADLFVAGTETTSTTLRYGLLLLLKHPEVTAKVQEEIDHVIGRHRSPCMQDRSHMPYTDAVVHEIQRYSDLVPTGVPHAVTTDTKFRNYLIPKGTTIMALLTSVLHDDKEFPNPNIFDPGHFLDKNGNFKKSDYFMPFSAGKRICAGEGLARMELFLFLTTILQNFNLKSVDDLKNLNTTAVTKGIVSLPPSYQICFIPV
Description: Inhibition of CYP2C8 (unknown origin). The class given is ADME.

Data set [34] concerns the target T2, Cytochrome P450 3A4. Description: Activation of CYP3A4 (unknown origin). Format: ADME.
In a further data set the test system is SJSA-1. Description: Antitumor activity against human SJSA-1 cells xenografted in po dosed CD-1 nu/nu mouse assessed as tumor growth inhibition administered once daily for 7 consecutive days followed by 2 weeks off dosing schedule. Format: functional, organism-based. The conditions noted are these: time 3.0 weeks. (In general: In xenograft studies the graft and the host belong to different species.)

A short description of data set [35]: Toxicity in CD-1 mouse xenografted with human SJSA-1 cells assessed as body weight loss at 50 to 100 mg/kg, po administered once daily for 7 consecutive days followed by 2 weeks off dosing schedule. The conditions noted are these: in vivo, 504 h, dose 50-100 mg/kg, time 3 weeks. Format: organism-based.
The test system of a further data set is Mus musculus. Description: In vivo activation of p53 pathway in human SJSA-1 cells xenografted in po dosed CD-1 nu/nu mouse assessed as induction of p21 mRNA expression measured after 6 hrs. Format: functional, organism-based. The conditions noted are these: dose 100.0 mg/kg.
The target in data set [36] is Voltage-gated inwardly rectifying potassium channel KCNH2 (Homo sapiens, UniProt Q12809). Description: Inhibition of human ERG.
Voltage-gated inwardly rectifying potassium channel KCNH2, sequence (Q12809 whole entry): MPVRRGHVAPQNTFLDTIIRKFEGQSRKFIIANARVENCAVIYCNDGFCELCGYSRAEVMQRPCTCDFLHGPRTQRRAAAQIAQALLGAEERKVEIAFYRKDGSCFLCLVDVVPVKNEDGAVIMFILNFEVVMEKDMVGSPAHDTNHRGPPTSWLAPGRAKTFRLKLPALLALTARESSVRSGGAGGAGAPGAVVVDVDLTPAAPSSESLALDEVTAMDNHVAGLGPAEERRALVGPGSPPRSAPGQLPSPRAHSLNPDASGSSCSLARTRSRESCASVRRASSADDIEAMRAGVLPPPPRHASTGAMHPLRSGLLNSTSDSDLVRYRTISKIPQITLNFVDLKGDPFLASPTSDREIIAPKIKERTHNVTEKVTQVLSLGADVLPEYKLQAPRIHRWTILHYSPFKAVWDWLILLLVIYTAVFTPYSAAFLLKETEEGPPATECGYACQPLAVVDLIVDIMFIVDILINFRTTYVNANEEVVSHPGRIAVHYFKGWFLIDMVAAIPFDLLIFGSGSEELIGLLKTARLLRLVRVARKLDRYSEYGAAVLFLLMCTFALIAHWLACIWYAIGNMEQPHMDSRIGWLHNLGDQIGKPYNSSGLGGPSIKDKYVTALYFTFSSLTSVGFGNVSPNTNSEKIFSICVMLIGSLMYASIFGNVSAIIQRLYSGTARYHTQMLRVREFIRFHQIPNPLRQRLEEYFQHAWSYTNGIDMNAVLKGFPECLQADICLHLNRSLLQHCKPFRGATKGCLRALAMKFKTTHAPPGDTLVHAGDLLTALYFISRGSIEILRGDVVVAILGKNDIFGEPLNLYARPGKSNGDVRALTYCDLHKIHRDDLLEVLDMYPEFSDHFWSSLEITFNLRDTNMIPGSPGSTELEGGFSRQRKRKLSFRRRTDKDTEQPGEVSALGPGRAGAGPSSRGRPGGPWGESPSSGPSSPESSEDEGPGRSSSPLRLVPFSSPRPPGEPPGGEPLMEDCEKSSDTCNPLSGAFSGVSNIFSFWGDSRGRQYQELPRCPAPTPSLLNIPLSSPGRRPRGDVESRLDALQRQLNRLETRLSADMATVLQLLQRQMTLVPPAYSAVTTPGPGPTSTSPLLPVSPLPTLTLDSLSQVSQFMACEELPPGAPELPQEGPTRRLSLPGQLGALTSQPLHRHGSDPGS

T1 sequence (P04637 whole entry, the tested form may be a part): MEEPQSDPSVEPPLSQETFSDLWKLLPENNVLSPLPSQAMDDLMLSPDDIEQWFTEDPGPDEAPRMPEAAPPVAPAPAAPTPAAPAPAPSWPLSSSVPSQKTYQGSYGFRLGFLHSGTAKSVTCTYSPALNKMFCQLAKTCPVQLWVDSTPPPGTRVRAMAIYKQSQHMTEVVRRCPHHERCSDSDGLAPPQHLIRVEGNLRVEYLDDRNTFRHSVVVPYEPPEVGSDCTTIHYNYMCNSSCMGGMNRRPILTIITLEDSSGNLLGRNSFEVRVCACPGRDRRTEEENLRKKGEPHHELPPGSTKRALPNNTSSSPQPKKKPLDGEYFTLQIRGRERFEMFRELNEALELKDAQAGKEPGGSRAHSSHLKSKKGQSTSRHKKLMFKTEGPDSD
T1 sequence (Q00987 whole entry, the tested form may be a part): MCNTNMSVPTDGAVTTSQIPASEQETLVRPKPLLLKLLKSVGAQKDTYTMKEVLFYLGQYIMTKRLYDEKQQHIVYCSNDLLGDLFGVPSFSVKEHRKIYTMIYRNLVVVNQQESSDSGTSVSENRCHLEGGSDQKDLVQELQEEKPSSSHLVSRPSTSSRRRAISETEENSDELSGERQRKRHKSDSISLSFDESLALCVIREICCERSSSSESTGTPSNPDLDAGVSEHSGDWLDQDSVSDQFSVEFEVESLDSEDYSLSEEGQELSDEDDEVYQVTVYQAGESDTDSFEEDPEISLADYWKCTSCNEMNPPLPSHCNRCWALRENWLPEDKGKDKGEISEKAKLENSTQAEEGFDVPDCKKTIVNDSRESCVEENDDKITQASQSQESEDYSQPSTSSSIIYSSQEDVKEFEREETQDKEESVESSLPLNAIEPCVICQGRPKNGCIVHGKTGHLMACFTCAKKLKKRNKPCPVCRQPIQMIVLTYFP
T2 sequence (P08684 whole entry): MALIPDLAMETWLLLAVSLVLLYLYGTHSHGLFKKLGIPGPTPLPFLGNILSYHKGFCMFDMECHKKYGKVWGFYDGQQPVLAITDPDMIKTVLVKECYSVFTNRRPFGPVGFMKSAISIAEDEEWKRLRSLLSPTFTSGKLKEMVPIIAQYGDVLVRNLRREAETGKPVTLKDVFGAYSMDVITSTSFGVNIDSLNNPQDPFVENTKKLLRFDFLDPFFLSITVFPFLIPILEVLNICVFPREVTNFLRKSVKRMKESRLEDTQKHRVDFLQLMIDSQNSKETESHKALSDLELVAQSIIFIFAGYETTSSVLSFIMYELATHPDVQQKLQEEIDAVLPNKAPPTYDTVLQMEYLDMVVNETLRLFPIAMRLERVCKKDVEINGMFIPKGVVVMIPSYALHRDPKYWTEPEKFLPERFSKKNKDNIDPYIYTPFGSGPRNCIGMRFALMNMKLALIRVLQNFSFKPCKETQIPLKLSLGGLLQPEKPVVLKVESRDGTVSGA
Cytochrome P450 2C9, sequence (P11712 whole entry): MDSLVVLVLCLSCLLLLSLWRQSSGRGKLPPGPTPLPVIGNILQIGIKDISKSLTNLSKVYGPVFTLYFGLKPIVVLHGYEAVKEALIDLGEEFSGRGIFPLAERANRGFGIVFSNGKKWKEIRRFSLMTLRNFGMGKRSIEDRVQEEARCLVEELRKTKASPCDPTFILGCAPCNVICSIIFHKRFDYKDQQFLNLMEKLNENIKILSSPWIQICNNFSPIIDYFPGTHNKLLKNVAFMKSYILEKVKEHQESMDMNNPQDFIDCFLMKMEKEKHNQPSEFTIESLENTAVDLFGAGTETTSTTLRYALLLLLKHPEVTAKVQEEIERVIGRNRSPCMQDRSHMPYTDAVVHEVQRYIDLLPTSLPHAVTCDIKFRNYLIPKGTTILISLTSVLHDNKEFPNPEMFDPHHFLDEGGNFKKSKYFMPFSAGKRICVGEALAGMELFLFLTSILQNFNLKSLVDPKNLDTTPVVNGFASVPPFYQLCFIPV
Cytochrome P450 2D6, sequence (P10635 whole entry): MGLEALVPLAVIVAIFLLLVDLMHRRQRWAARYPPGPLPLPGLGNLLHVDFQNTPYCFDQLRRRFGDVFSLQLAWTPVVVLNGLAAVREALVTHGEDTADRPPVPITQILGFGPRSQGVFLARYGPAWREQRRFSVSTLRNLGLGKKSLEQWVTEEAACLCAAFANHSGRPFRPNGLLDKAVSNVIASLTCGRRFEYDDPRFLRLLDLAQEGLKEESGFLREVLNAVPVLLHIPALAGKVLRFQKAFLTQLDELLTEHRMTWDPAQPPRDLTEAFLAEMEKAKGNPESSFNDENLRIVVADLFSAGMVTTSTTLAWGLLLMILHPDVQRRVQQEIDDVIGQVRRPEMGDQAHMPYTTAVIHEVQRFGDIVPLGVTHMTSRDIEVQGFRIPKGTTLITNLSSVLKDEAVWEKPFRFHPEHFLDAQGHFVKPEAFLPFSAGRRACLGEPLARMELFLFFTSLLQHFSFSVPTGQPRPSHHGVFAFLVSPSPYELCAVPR
E3 ubiquitin-protein ligase Mdm2, sequence (Q00987 whole entry): as the sequence (Q00987 whole entry, the tested form may be a part) above

Usually Kd stands for the free concentration of one partner at which half of the binding sites on the other are occupied at equilibrium, for simple one-to-one binding. In turn, `CCC[C@H]1N(C(=O)c2ncccc2C(F)(F)F)CCC[C@@]1(Oc1csc(C(F)(F)F)c1)C(=O)N1CCC(O)(c2ccccc2O[C@H](C)CCC2(C(=O)O)CCC2)CC1` displayed a Kd in [1] of 0.0038 µM.

Usually logD stands for lipophilicity at a set pH, counting ionised and neutral species. The MRT is a mean duration of stay, worked out from the concentration-time curve. For orientation: bioavailability means the share of a dose that reaches the circulation, judged against a reference dose that is usually intravenous. Broadly, the IC50 is the midpoint of a concentration-inhibition curve. `CCO[C@@H](c1nc2cc(-c3noc(=O)[nH]3)nc(-c3cncc(Cl)c3)c2n1[C@H](C)[C@H]1CC[C@H](C)CC1)C1CC1` displayed a logD in [2] of 2.75. Further, the CL free in [3] was found to be 323 mL/min/kg; in [6], 2060 mL/min/kg. Besides, the results for the mean residence time (MRT) in [4] and in data set [7] were 3.1 h and 0.5 h, respectively. Besides, the results for the bioavailability in data set [5] and in data set [8] were 93% and 54%, respectively. Half-maximal inhibition with HCT-116 (IC50) was put at 0.031 µM.

In turn, `C[C@@H](Nc1nc(-c2noc(=O)[nH]2)nc2nc(N3CCOC[C@H]3c3ccccc3)n(C[C@H]3CC[C@H](C)CC3)c12)C1CCC1` registered a log distribution coefficient (logD) in data set [2] of 3.27. Moreover, the IC50 was 0.064 µM in data set [9] and 0.446 µM with HCT-116. Besides, the Ratio IC50 in [10] was determined as 100. The same compound returned an MRT in [7] of 0.73 h. In data set [11], this compound registered a clearance of 73 mL/min/kg. The compound further returned a bioavailability in [12] of 2%.

As to `C[C@H]1CC[C@H](Cn2c(N3CCOC[C@H]3c3ccccc3)nc3cc(-c4noc(=O)[nH]4)nc(-c4cncc(Cl)c4)c32)CC1`, the figures for the half-inhibitory concentration (IC50) (in data set [13]; in [9]; with HCT-116) were 0.00061 µM, 0.031 µM and 0.093 µM, respectively. Moreover, the logD in [2] amounted to 2.69. Further, the values for the CL free in [3] and in data set [6] were 1607 mL/min/kg and 20745 mL/min/kg, respectively. For the same compound, the MRT in [4] was found to be 1.7 h; in [7] it was 0.4 h. Moreover, the bioavailability in data set [5] was 39%; in [8], 5%.

Broadly, the EC50 is the midpoint of the concentration-response curve. In [2], `C[C@H]1CC[C@H](Cn2c(N3CCO[C@@H]4CCC[C@H]43)nc3cc(-c4noc(=O)[nH]4)nc(-c4cncc(Cl)c4)c32)CC1` returned a pH-dependent lipophilicity (logD) of 2.46. Also, the figures for the CL free in data set [3] and in data set [6] were 122 mL/min/kg and 5214 mL/min/kg, respectively. In addition, the MRT in data set [4] was determined as 5.9 h; in data set [7], 0.6 h. For the same compound, the bioavailability turned out to be 86% in data set [5], 24% in [8], 24% in [29] and 86% in data set [30]. Besides, the CLint scaled in [14] was determined as 251 mL/min/kg; in [15], 78 mL/min/kg; in [16] it was 70 mL/min/kg; in [31], 58 mL/min/kg. In addition, the fraction unbound in data set [17] is 0.007; in data set [18], 0.009; in data set [19], 0.006; in [32] it was 0.008. Besides, the clearance in [20] worked out at 36 mL/min/kg; in data set [21], 1.4 mL/min/kg; in data set [22], 12.4 mL/min/kg. Further, the Vd in data set [23] worked out at 1.3 L/kg; in [24], 0.39 L/kg; in data set [25] it was 0.91 L/kg. Also, the half-life in data set [26] was 3 h; in data set [27], 4.2 h; in data set [28] it was 1.6 h. Besides, the IC50 against Cytochrome P450 3A4 [33] is above 50 µM; at Cytochrome P450 2C9, 31 µM; at Cytochrome P450 2D6, above 50 µM; against Cytochrome P450 2C8 it was 0.8 µM; in [36], 12 µM; in the data set with HCT-116 it was 0.122 µM. The 50% effective concentration (EC50) on Cytochrome P450 3A4 [34] is above 30 µM. For the same compound, the Activity entry was “Dose-Dependent Effect” in the data set on SJSA-1, “Non-Toxic” in data set [35] and “Dose-Dependent Effect” with Mus musculus.
